The source of these data is ChEMBL document CHEMBL4177640, “Potential anti-proliferative agents from 1,4-benzoxazinone-quinazolin-4(3H)-one templates” (2017).

Holding throughout (type): functional
In one test the test system is A549. Kind of test: Antiproliferative activity against human A549 cells after 48 hrs by SRB cell proliferation assay. Conditions: A549, 48 h.
Another test deals with HeLa. Kind of test: Antiproliferative activity against human HeLa cells after 48 hrs by SRB cell proliferation assay.
For a further test, the system named is MDA-MB-231. Kind of test: Antiproliferative activity against human MDA-MB-231 cells after 48 hrs by SRB cell proliferation assay. Conditions: MDA-MB-231, 48 h.

As a reminder, the GI50 is the concentration giving 50% growth inhibition. Read a high GI50 as lower sensitivity of the cells. On to `O=C(CN1C(=O)COc2ccccc21)c1ccc(/C=C/Cn2c(-c3ccc(Cl)cc3)nc3ccccc3c2=O)cc1`, for which the GI50 in the test with A549 was 0.76 µM; in the test on HeLa, 1.1 µM; with MDA-MB-231 it was 2 µM.

`CCOc1ccc(-c2nc3ccccc3c(=O)n2C/C=C/c2ccc(C(=O)CN3C(=O)COc4ccccc43)cc2)cc1`: the GI50 turned out to be 1 µM in the test on A549, 1.05 µM in the test on HeLa and 1.13 µM with MDA-MB-231.

For `Cc1ccc(-c2nc3ccccc3c(=O)n2C/C=C/c2ccc(C(=O)CN3C(=O)COc4ccccc43)cc2)cc1`, the GI50 in the test on A549 turned out to be 0.9 µM; with HeLa, 1.4 µM; in the test with MDA-MB-231, 3.4 µM.

As for `COc1ccc(/C=C\c2cc(OC)c(OC)c(OC)c2)cc1O` [COMBRETASTATIN A4], the GI50 was 0.056 µM with A549, 0.084 µM in the test on HeLa and 0.046 µM in the test on MDA-MB-231.

`COc1cccc(-c2nc3ccccc3c(=O)n2C/C=C/c2ccc(C(=O)CN3C(=O)COc4ccccc43)cc2)c1`: the GI50 with A549 turned out to be 0.61 µM; in the test on HeLa, 0.55 µM; with MDA-MB-231, 13 µM.

Take `O=C(CN1C(=O)COc2ccccc21)c1ccc(/C=C/Cn2c(-c3ccc(F)cc3)nc3ccccc3c2=O)cc1`: the GI50 in the test with A549 worked out at 0.81 µM; with HeLa, 1.02 µM; with MDA-MB-231, 1.52 µM.

On to `O=C(CN1C(=O)COc2ccccc21)c1ccc(/C=C/Cn2c(-c3ccc(Cl)cc3Cl)nc3ccccc3c2=O)cc1`, for which the GI50 in the test on A549 came out at 0.91 µM; in the test with HeLa it was 0.62 µM; with MDA-MB-231 it was 2.73 µM.

Turning to `O=C(CN1C(=O)COc2ccccc21)c1ccc(/C=C/Cn2c(-c3ccc(C(F)(F)F)cc3)nc3ccccc3c2=O)cc1`, the GI50 with A549 worked out at 0.93 µM; in the test on HeLa it was 1.32 µM; with MDA-MB-231, 0.58 µM.

As for `O=C(CN1C(=O)COc2ccccc21)c1ccc(/C=C/Cn2c(-c3ccccc3)nc3ccccc3c2=O)cc1`, the GI50 in the test on A549 worked out at 1 µM; in the test on HeLa, 1.37 µM; in the test on MDA-MB-231, 13.4 µM.

In the case of `COc1ccc(-c2nc3ccccc3c(=O)n2C/C=C/c2ccc(C(=O)CN3C(=O)COc4ccccc43)cc2)c(OC)c1OC`, the GI50 with A549 worked out at 0.32 µM; in the test with HeLa, 1.51 µM; in the test with MDA-MB-231 it was 6.76 µM.

As for `COc1ccc(-c2nc3ccccc3c(=O)n2C/C=C/c2ccc(C(=O)CN3C(=O)COc4ccccc43)cc2)c(OC)c1`, the GI50 with A549 came out at 1.36 µM; in the test on HeLa, 0.59 µM; in the test with MDA-MB-231, 6.03 µM.

On to `COc1ccc(-c2nc3ccccc3c(=O)n2C/C=C/c2ccc(C(=O)CN3C(=O)COc4ccccc43)cc2)cc1`, for which the GI50 with A549 worked out at 1.5 µM; with HeLa, 1.03 µM; in the test on MDA-MB-231, 3.6 µM.

As for `COC(=O)Nc1nc2cc(C(=O)c3cccs3)ccc2[nH]1` [NOCODAZOLE], the GI50 in the test on A549, in the test on HeLa and in the test with MDA-MB-231 was less than 0.01 µM in each case.

Turning to `COc1ccc(-c2nc3ccccc3c(=O)n2C/C=C/c2ccc(C(=O)CN3C(=O)COc4ccccc43)cc2)c(F)c1`, the values for the GI50 in the test with A549, in the test with HeLa and in the test on MDA-MB-231 were 0.67 µM, 0.37 µM and 2.4 µM, respectively.

Consider `O=C(CN1C(=O)COc2ccccc21)c1ccc(/C=C/Cn2c(-c3ccc([N+](=O)[O-])cc3)nc3ccccc3c2=O)cc1`, for which the 50% growth inhibitory concentration (GI50) in the test with A549 is 1 µM; with HeLa it was 0.66 µM; in the test on MDA-MB-231, 8.8 µM.

On to `Cc1nc2ccccc2c(=O)n1C/C=C/c1ccc(C(=O)CN2C(=O)COc3ccccc32)cc1`, for which the GI50 in the test on A549 was determined as 0.91 µM; with HeLa, 0.88 µM; in the test with MDA-MB-231, 6.14 µM.
